What was measured:
[1] = system: U87MG-wt and U87MG-kd (ITGAV, integrin αV knockdown) cells; assay: Cellular ruthenium uptake by ICP-MS in wild type vs ITGAV knockdown cells; format: cell-based, human; conditions: normoxia, 10 μM, 3 h, 2D monolayers, n = 3
Method: Figure 2 Integrin targeting by Ru-p(HH), Ru-p(MH), and Ru-p(MM)in vitro. (a, b) Expression of integrin (a) αVβ3 and (b) αVβ5 in MCF7, PC-3, A549, MDA-MB-231, U87MG, and U87MG-kd cell lines under normoxic (21% O2) or hypoxic (1% O2) conditions. Note a: ITGAV was knockdown; see Methods. Bars represent the fluorescence intensity of the cells incubated with either anti-integrin αVβ3 or αVβ5 monoclonal antibodies followed by a secondary antibody conjugated to Alexa-Fluor 488. Error: standard deviation (SD), n = 2. (c) Ruthenium accumulation (μg Ru/million cells) of wild type U87MG (U87MG-wt) and ITGAV knockdown U87MG (U87MG-kd) cell lines after treatment with medium (control), Ru-p(HH), Ru-p(MH), Ru-p(MM), or [Ru(Ph2phen)2(bpy)]Cl2 (normoxia, 10 μM, 3 h). Error: standard deviation (SD), n = 3. Two-way ANOVA was used to determine the significance of the comparisons of data (*P < 0.05, **P < 0.01, ***P < 0.001, ****P < 0.0001).
In order to check whether the integrins […] were responsible for the cellular uptake of these conjugates, an ITGAV (integrin αV) knockdown U87MG cell line (U87MG-kd, Figure 2a,b) was prepared, and the cellular ruthenium uptake was measured using ICP-MS in wild type and knockdown U87MG 2D cell monolayers (Figure 2c). […]

[2] = system: U87MG tumor cells in zebrafish hindbrain; assay: Tumor targeting in zebrafish embryos, colocalization of drug emission with GFP-U87MG cells in the hindbrain; format: in vivo; conditions: 2 pmol, line-scan profiles of high-resolution images (Figure S35)
Method: In a second step, the targeting of GBM cells by Ru-p(HH) was tested by detecting the colocalization of the red-emissive drug (excitation: 488 nm; emission detector window: 630–774 nm) with GFP-U87MG cells (excitation: 488 nm; emission: 485–575 nm). To clearly see the distribution of the drug and of the cancer cells in zebrafish, we used Tg(kdrl:mTurquoise)^hu7185Tg embryos. In this transgenic fish line, the blood vessels of the embryos are labeled by the mTurquoise fluorescent protein, which can be excited at 405 nm and emits at 464–480 nm. As shown in Figure 5a and Figure S33a, when only tumor cells were injected into the hindbrain of the zebrafish embryo, GFP was the only signal detected. […] By calculating the distribution and intensity of Ru-p(HH) emission in the region of U87MG cells in the brain, the PCC and MOC values for the top-down view of the hindbrain were determined to be 0.49 and 0.79, respectively, while those in the side images were 0.77 and 0.66 (Figure 5b, Figure S33b).
Figure 5 Targeting a U87MG brain tumor with Ru-p(HH)in vivo. […] The Z-axis is the cell fluorescence intensity (green) and the drug fluorescence intensity (purple). […] Both PCC and MOC are calculated and are shown in the graph. […]

Q: What does the source list for [Ru(Ph2phen)2(bpy)]Cl2?
A: cellular ruthenium uptake in U87MG-kd compared to wild type U87MG [1]: not lowered; MOC between prodrug and tumor, comparison with RGD-free control [2]: 0.35; PCC between prodrug and tumor, comparison with RGD-free control [2]: −0.2
